Measurements: PMC4309560, “Creating Novel Activated Factor XI Inhibitors through Fragment Based Lead Generation and Structure Aided Drug Design” (PLoS ONE, 2015)

Key:
[1] = system: FXa, thrombin, trypsin, plasma kallikrein (PKK), FIXa, tissue plasminogen activator (tPA) and plasmin; assay: Serine protease selectivity panel (statements on the whole panel); format: biochemical, human; conditions: relative to FXIa
Method: Enzymatic assay. […] Selected compounds were also screened against other serine proteases to evaluate their selectivity profiles. All protease activities were determined by chromogenic assays monitoring the release of para-nitroanilide at 405 nm.
It is important to achieve potent FXIa inhibitors with high selectivity vs. other serine proteases in order to minimize risk for adverse effects, particularly with regard to bleeding, which limits the utility of current antithrombotic drugs, e.g. dabigatran and rivaroxaban. Selectivity data for FXa, thrombin, trypsin, plasma kallikrein (PKK), FIXa, tissue plasminogen activator (tPA) and plasmin were therefore generated and are summarized in Fig. 6. […].
(§1) Once the compounds were synthesized and characterized, enzymatic assays were performed to evaluate the inhibitory activity of the resulting compounds against FXIa and other serine proteases. All protease activities were determined by chromogenic assays monitoring the release of para-nitroanilide at 405 nm. IC50 values for the compounds were determined using equation: Q= V/(1+([I]/IC50)^n) Q denotes the assay readout, V denotes the uninhibited velocity of the enzyme, [I] denotes the inhibitor concentration, n denotes the slope and IC50 is the inhibitor concentration at V/2.

Human plasmin = target: T1, Human plasmin (Homo sapiens, UniProt P00747); assay: Plasmin chromogenic assay; format: biochemical; conditions: read-out: Plasmin % inhibition at 99 μM
T1 construct: Human plasmin was from Enzyme Research Laboratories, Swansea, UK; purchased Enzyme Research Laboratories, Swansea, UK
T1 sequence (P00747 581-810 limits assumed): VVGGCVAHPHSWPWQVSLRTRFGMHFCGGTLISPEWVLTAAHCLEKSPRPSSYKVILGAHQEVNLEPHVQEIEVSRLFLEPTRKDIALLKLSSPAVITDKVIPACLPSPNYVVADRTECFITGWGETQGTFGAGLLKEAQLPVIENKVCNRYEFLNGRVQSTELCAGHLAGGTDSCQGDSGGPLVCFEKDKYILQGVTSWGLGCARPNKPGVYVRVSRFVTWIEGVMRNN
T1 sequence (P00747 97-580 partner limits assumed): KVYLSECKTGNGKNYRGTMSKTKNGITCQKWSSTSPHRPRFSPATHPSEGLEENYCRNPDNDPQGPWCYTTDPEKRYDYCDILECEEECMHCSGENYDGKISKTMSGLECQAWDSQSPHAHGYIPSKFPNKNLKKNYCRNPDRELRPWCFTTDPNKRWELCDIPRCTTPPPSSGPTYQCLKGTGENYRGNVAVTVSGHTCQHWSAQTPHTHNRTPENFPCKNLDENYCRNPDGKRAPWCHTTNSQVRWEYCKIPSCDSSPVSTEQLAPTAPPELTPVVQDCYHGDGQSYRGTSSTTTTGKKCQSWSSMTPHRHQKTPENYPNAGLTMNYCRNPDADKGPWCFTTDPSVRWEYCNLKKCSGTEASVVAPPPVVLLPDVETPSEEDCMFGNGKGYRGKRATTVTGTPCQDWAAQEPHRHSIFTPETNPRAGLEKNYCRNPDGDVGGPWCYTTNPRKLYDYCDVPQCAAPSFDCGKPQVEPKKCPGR
Method: (§2) Enzymatic assay. […] Selected compounds were also screened against other serine proteases to evaluate their selectivity profiles.
as §1, with “All protease activities were determined by chromogenic assays monitoring the release of para-nitroanilide at 405 nm.” left out
(§3) [S] denotes the substrate concentration.
Plasmin. Human plasmin was from Enzyme Research Laboratories, Swansea, UK.

FXIa CD = target: T2, FXIa CD (Homo sapiens, UniProt P03951, C500S/K455A/S452A/T493A); assay: FXIa surface plasmon resonance (Biacore) inhibition in solution assay; format: binding
T2 construct: purification of the catalytic domain (residues 370–607) was carried out as described by Jin et al; made in house
T2 sequence (P03951 388-625 S452A/K455A/T493A/C500S): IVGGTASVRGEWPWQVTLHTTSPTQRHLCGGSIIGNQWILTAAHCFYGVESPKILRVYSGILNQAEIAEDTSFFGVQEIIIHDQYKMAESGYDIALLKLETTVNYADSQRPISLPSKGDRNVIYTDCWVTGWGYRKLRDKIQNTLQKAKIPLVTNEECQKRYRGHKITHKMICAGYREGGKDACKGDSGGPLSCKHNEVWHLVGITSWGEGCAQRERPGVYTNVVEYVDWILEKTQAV
Description: SPR. […] The SPR data were then used to rank and select compounds for X-ray crystallography experiments. The SPR method was based on an inhibition in solution assay in which compound 4, immobilized on the biosensor surface, served as a probe for the FXIa catalytic site. […] Fig. 4 illustrates the design of compound 4 based on the crystal structure of FXIa in complex with compound 1. Since any ligand that binds to the S1 pocket competes with compound 4 for binding to FXIa CD, it is possible to derive the K D for that ligand [60]. The initial binding rate of the protein to compound 4, K on, was used to determine the percentage of free protein in solution which changed by varying the concentration of the competing ligand. The free protein concentration was plotted against the logarithm of the ligand concentration and a sigmoidal dose–response curve-fit model was applied to determine the K D-value.
The tethered free amine ligand 4 was covalently linked to the dextran layer on the CM5 sensor chip (GE Healthcare/Biacore) using the Amine Coupling Kit (Healthcare/Biacore) and performed according to the manufacturer’s recommendations. Carboxyl groups on the dextran layer were activated by injecting a 1:1 mixture of 0.5 M N-ethyl-N’ (3-dimethylaminopropyl)-carbodiimide and 0.5 M N-hydroxysuccinimide at 10 μL/min for 7 min. The activated carboxyl groups on the control channels were blocked by injecting a 1 M ethanolamine solution for 7 min at 10 μL/min. […] The remaining activated groups were blocked with 1 M ethanolamine. Compounds were tested in a concentration response curve. The compounds were serially diluted 1:3 in DMSO to form a 10-point concentration response curve with 5 mM for the highest concentration. The FXIa CD was added to the plate at a final concentration of 50 nM and the mixture was incubated for 15 min at RT. The plate was then sealed and placed in the Biacore 3000 instrument. Samples were injected at 20 μL/min for 2 min. […] The value used to calculate percent inhibition of binding was the slope of the response measured 8 s after the start of the injection. […]

[2] = Chromatographic determination of lipophilicity; format: physicochemical; conditions: reversed-phase UPLC, Waters BEH C18 stationary phase, pH 7.4; measured by liquid chromatography, pH7.4
Description: The chromatographic data was obtained utilizing a Waters Aquity UPLC chromatographic system running a gradient from 5–95% acetonitrile at pH7.4. The stationary phase was a Waters BEH C18 2.1x50 mm. Standardized retention data were obtained by normalization against a set of compounds with precisely determined (octanol/water) logD-values. Lipophilicity values for samples were derived from a corresponding calibration curve.

[3] = target: T3, Human recombinant thrombin (Homo sapiens, UniProt P00734); assay: Thrombin (FIIa) chromogenic assay; format: biochemical; conditions: read-out: FIIa % inhibition at 99 μM
T3 construct: Human recombinant thrombin was prepared in house; made in house
Method: as §2
as §1, with “All protease activities were determined by chromogenic assays monitoring the release of para-nitroanilide at 405 nm.” left out
as §3
Thrombin. Human recombinant thrombin was prepared in house.

Human PKK = target: T4, Human PKK (Homo sapiens, UniProt P03952); assay: PKK (plasma kallikrein) chromogenic assay; format: biochemical
T4 construct: trypsin, plasma kallikrein (PKK), FIXa; purchased Calbiochem, Darmstadt, Germany
T4 sequence (P03952 391-638 limits assumed): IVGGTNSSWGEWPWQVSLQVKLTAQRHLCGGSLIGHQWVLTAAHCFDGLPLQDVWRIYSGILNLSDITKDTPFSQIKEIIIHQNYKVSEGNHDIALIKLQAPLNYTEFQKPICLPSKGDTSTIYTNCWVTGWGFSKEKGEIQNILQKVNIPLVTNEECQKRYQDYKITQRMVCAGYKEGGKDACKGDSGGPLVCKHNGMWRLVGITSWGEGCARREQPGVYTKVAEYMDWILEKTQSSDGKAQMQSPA
T4 sequence (P03952 20-390 partner limits assumed): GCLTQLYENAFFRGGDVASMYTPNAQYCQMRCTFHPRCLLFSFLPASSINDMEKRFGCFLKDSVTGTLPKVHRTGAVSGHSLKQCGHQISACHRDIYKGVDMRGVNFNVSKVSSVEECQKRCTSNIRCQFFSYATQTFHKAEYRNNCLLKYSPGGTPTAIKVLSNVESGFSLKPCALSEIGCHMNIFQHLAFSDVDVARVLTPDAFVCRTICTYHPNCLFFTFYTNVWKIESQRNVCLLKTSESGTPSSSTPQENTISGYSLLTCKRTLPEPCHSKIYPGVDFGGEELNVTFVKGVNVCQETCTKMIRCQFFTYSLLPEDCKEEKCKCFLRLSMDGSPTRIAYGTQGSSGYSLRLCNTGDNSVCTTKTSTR
Method: as §2
as §1, with “All protease activities were determined by chromogenic assays monitoring the release of para-nitroanilide at 405 nm.” left out
as §3
PKK. Human PKK was from Calbiochem, Darmstadt, Germany.

Human tPA = Human tPA (Homo sapiens, UniProt P00750); assay: biochemical; conditions: read-out: tPA % inhibition at 99 μM
Human tPA, sequence (P00750 36-562): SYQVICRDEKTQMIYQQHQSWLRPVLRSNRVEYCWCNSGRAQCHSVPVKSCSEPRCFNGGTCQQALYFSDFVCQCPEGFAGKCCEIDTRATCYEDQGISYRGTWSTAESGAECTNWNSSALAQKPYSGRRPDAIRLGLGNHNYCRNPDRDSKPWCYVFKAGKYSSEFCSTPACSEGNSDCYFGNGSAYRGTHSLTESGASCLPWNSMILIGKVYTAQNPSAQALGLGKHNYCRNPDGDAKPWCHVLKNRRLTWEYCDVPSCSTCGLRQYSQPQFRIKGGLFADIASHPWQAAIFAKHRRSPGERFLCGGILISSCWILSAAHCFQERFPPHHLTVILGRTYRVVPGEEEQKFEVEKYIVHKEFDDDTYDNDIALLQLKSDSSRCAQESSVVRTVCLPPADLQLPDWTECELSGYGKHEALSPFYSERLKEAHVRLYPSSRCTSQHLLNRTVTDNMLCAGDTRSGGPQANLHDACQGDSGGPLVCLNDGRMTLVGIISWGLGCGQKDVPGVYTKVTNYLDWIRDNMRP
Method: as §2
as §1, with “All protease activities were determined by chromogenic assays monitoring the release of para-nitroanilide at 405 nm.” left out
tPa. Human tPA was from Biopool, Umeå, Sweden.

rat FXIa = assay: Species selectivity: rat FXIa potency; format: biochemical; conditions: rat vs human FXIa
Human FXa = Human FXa (Homo sapiens, UniProt P00742); assay: biochemical; conditions: read-out: FXa % inhibition at 99 μM
Human FXa, sequence (P00742 235-488 limits assumed): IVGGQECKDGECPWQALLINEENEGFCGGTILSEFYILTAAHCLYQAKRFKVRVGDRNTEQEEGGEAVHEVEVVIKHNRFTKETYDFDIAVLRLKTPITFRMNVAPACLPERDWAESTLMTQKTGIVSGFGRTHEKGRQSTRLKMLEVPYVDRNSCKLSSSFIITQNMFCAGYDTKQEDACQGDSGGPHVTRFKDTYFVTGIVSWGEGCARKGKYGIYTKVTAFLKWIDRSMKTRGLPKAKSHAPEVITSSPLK
Human FXa, sequence (P00742 41-179 partner limits assumed): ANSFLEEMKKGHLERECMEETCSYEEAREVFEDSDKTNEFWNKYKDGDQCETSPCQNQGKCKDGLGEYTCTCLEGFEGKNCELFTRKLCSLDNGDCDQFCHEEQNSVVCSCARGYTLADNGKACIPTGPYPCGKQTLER
Method: as §2
as §1, with “All protease activities were determined by chromogenic assays monitoring the release of para-nitroanilide at 405 nm.” left out

Human FIXa = Human FIXa (Homo sapiens, UniProt P00740); assay: biochemical; conditions: read-out: FIXa % inhibition at 99 μM
Human FIXa, sequence (P00740 227-461 limits assumed): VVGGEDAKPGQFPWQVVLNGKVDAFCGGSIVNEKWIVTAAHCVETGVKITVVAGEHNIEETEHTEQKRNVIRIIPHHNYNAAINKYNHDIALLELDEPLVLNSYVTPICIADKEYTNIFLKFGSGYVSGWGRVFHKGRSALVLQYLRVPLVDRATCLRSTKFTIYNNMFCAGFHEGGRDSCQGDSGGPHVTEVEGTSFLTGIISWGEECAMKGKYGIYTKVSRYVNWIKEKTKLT
Human FIXa, sequence (P00740 47-191 partner limits assumed): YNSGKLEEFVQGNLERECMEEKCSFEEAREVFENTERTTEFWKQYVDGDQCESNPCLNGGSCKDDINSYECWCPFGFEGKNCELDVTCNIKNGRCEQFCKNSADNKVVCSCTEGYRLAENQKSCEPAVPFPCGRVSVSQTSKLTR
Method: as §2
as §1, with “All protease activities were determined by chromogenic assays monitoring the release of para-nitroanilide at 405 nm.” left out

O=C(N[C@@H](Cc1ccccc1)C(=O)NCc1cc(=O)[nH]c2ccc(Cl)cc12)c1ccc2[nH]c(=O)cc(O)c2c1 [Compound 13, (S)-N-(1-{(6-Chloro-2-oxo-1,2-dihydroquinolin-4-yl)methylamino}-1-oxo-3-phenylpropan-2-yl)-4-hydroxy-2-oxo-1,2-dihydroquinoline-6-carboxamide]
selectivity vs. all proteases in the panel, except PKK [1]: more than five orders of magnitude selectivity | inhibition at 99 µM (Human plasmin): 14% | Kd (FXIa CD): 0.5 nM | chromatographic logD [2]: 0.87 | inhibition at 99 µM [3]: 11% | IC50 (Human PKK): 27 nM | selectivity vs. PKK (Human PKK; FXIa over PKK, for 13 based on Ki values): 11 fold | Ki (Human PKK; converted from IC50): 5.6 nM | inhibition at 99 µM (Human tPA): 2% | potency against rat FXIa relative to human FXIa (fold less potent) (rat FXIa): about 30000 fold | inhibition at 99 µM (Human FXa): 18% | inhibition at 99 µM (Human FIXa): 2%
